In patent US20140010939A1, “Sweetness Enhancers, Sweetener Compositions, Methods of Making the Same and Consumables Containing the Same” (Nutrinova Nutrition Specialties & Food Ingredients GmbH, priority 2011, published 2014):
Entries after “also recorded” stand apart in the source; their conditions may differ.

Molecular target: T1, heterodimeric hT1R2/hT1R3 sweet taste receptor (Homo sapiens, UniProt Q7RTX0+Q8TE23)
T1 construct: expressed in transfected cells
T1 sequence (Q8TE23 20-839): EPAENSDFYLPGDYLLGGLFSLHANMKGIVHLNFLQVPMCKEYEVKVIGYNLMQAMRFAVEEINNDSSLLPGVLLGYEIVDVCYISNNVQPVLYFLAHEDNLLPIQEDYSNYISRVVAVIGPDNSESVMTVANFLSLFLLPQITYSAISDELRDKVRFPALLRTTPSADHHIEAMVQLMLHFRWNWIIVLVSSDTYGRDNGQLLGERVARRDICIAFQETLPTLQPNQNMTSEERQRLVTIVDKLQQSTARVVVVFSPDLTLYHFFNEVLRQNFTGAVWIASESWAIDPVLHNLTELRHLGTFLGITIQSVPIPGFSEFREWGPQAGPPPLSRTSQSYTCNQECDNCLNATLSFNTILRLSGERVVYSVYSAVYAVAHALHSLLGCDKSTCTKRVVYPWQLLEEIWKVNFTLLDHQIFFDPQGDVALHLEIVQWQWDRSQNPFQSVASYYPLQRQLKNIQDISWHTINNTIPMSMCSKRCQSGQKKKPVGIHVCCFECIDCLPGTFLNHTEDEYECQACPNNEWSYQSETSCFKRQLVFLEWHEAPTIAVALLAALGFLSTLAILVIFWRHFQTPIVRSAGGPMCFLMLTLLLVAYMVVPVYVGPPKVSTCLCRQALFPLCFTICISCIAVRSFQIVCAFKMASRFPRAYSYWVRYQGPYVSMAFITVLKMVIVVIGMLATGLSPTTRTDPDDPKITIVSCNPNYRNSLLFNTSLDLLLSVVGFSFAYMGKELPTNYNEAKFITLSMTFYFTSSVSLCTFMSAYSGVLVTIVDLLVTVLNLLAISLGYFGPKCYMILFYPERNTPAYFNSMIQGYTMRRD
T1 sequence (Q7RTX0 21-852): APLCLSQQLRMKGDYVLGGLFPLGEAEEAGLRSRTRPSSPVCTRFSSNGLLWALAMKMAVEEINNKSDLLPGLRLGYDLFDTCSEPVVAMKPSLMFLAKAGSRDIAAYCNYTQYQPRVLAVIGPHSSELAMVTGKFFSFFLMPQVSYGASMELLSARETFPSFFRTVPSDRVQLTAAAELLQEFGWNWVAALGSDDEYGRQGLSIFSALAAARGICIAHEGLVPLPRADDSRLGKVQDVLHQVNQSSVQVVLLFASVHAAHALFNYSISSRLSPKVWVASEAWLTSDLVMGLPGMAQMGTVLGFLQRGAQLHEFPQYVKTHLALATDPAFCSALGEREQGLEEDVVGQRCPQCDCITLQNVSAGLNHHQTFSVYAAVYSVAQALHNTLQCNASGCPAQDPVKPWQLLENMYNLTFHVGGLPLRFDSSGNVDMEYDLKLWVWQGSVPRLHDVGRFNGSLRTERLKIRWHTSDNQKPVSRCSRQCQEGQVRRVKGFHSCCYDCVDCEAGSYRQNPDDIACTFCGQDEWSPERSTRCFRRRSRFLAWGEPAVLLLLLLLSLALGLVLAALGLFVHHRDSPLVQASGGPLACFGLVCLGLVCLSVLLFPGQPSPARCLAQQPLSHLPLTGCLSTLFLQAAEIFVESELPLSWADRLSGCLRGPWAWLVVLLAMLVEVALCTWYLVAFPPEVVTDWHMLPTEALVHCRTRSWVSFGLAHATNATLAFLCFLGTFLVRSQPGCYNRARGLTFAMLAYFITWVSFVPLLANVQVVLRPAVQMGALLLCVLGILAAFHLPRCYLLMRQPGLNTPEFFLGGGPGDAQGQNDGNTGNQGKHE
Assay: Recombinant human taste receptor T1R2/T1R3 dependent cell based assay (calcium, Fluo4-AM fluorescence)
Procedure: For measurement of human T1R2/T1R3 taste receptor dependent activity a control cell line without sweet receptor based on HEK 293 and a cell line expressing the sweet receptor hT1R2/hT1R3 based on HEK 293, respectively, are seeded into assay plates and labelled with the calcium sensitive fluorescence dye Fluo4-AM in a culture medium. The potential modulators, e.g. the test compound, are added to the control cell line and to the cell line expressing the sweet receptor hT1R2/hT1R3, respectively.
A stable cell line based on HEK293 was termed HEKα15#17 served as control for functional Ga-protein and a stable cell line HEKGα15#17R2R3b#8 C6 served as cell line expressing the sweet receptor hT1R2/hT1R3 based on HEKGα15#17.
The cells were cultured in DMEM/HG and 10% FCS Gold, 4 mM L-Glutamin, 1,3 mg/ml Geneticin (HEKGα15#17) or the same medium additionally containing 6 μg/ml Blasticidin (HEKGα15#17R2R3b#8 C6). The medium for the assay was DMEM/HG (high glucose, 4.5 g/l glucose, Life Technologies) and 10% FCS Gold, 4 mM L-Glutamin (HEKGα15#17) or DMEM/LG (low glucose, 1 g/l glucose; Life Technologies) and 10% FCS Gold (HEKGα15#17R2R3b#8C6), respectively.
In order to evaluate the sweet receptor modulating activity of the compound of formula (Ia), compound of formula (Ia) was added to the cultures in a concentration of 25 μM in a volume of 50 μl. Controls were KH-buffer (Krebs HEPES-buffer: 118 mM NaCl, 4.7 mM KCl, 1.2 mM MgSO4, 1.2 mM KH2PO4, 4.2 mM NaHCO3, 1.3 mM CaCl2, 10 mM Hepes, pH 7.4) either without or with sweetness enhancer.
Further controls for function of G-protein and receptor were isoproterenol (1 μM, Sigma Aldrich), ionomycin (1 μM, Calbiochem) and ATP (1 μM, Applichem). […]
On day 2 the cells were seeded into assay plates at a density of 25,000 cells/well. Assay plates for fluorescence measurement (black clear bottom 96-cavity plates, Greiner Bio-One) were coated with poly-D-lysine. […]

CC(=O)N(O)CCCCCNC(=O)C(O)(CC(=O)O)CC(=O)NCCCN(O)C(C)=O (stereo not drawn) [compound of formula (Ia)]
Enhancement of the activity of fructose (sweetness enhancer activity in vitro) (25 μM with fructose (20 mM) versus KH buffer/fructose): fructose enhancer; also recorded: enhances the activity of fructose
Time response in the cell assay (measured over a period of 78 seconds, FIG. 2 / inserted graph): selective stimulation of receptor carrying cells
Fluo4-AM fluorescence increase (cellular activation) (primary screening, receptor carrying cells only, FIG. 1 sixth bar): strong cellular activation
